Patent publication US11834698B2, “Process for determining enzyme activity in a cell by activity-based reporter gene technology (ABRGT)” (INDIAN INSTITUTE OF SCIENCE EDUCATION AND RESEARCH, priority 2018, dated 2023)
Peptide text beside a SMILES is read from it. * marks the point of attachment. Cbz = O=C(OCc1ccccc1)*; CH2F = FC*

Tests used:
[1] = target: T1, caspase-7 GFPspark (Homo sapiens, UniProt P55210); assay: AbRGT FRET imaging / acceptor photobleaching, caspase-7 GFPspark in HEK-293 cells; format: cell-based
T1 construct: host or cells: MCF-7, HEK-293
T1 sequence (P55210 24-198 limits assumed): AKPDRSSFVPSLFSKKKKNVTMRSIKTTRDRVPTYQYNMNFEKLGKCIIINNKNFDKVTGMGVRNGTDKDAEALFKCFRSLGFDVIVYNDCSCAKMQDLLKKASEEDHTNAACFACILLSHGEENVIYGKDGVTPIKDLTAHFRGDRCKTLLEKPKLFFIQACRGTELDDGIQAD
T1 sequence (P55210 207-303 limits assumed): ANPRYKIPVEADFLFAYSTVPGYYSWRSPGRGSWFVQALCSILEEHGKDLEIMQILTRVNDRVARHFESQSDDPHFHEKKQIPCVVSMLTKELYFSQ
Experimental: FIGS. 14A and 14B depict specific detection of caspase-7 GFPspark in HEK-293 cells. Caspase-7 GFPspark (1 μg) transfected HEK-293 cells were treated with STS (1 μM) for 10 h and labelled with the probe 1 (1 μM) for 2 h. […] The acceptor photobleaching experiment was performed to confirm the FRET signal as described previously. Bar graph representing a rise in GFP intensity in ROI after rhodamine photobleaching was 87 a.u. as compared to the unbleached background, i.e., 13 a.u. FRET efficiency was calculated to be 33±2%.
Plasmids and transient transfection: GFPspark tagged plasmids; caspase-3 GFPspark tag (Cat: HG10050-ACG), caspase-7 GFPspark tag (HG10049-ACG), caspase-8 GFPspark (HG10078-ACG), caspase-9 GFPspark (HG11151-ACG) and cathepsin B GFPspark (HG10483-ACG) were procured from Sino Biological. For transfection, cells were seeded in a 6-well plate at a density of 0.4 million cells/well. […] 24 h post-transfection, cells were visualized under the GFP filter for GFPspark expression under fluorescence microscope at 10× magnification.
Labelling of active caspases in apoptotic cells with FABP: After 24 h of transfection, cells were treated with STS (1 μM) drug or TRAIL (1 μg/ml) for apoptotic induction and incubated for 2, 4, 6 and 8 h at 37° C. in a humidified atmosphere of 5% CO2/95% air. […] Slides were then imaged for GFP, FRET and rhodamine fluorescence signals under confocal microscopy. […]
Fluorescence imaging studies, FRET procedure: Images were collected on Zeiss LSM710 confocal microscope with 25 mW argon laser using Zen10 software. […] Images were collected in the three channels; GFP channel, argon laser tuned at 488 nm with 2% laser intensity and fluorescence emission was collected in emission range of 490-550 nm; rhodamine channel, argon laser tuned to 561 nm laser with 2% laser intensity and fluorescence emission was collected in range 550-650 nm and FRET channel with excitation laser of GFPSPARK channel and emission range of rhodamine channel. […]

[2] = target: T2, cathepsin B GFPspark (Homo sapiens, UniProt P07858); assay: AbRGT FRET imaging / acceptor photobleaching, cathepsin B GFPspark in HEK-293 cells; format: cell-based
T2 construct: GFPspark (C); host or cells: HEK-293
Experimental: FIG. 20 depicts confocal images of HEK-293 cells in GFP, FRET and Rh channel Cathepsin B GFPspark transfected HEK-293 cells were treated with STS (1 μM) for 4 h and labelled (a) (i) with or (a) (iv) without probe 1. Cells were pre-treated with (a) (ii) Z-VAD-FMK (50 μM) or (a) (iii) E-64 (50 μM) inhibitor 1 h before the probe 1 labelling. (b) Quantification of the change in GFPS fluorescence intensity after rhodamine photobleaching in both unbleached control region and rhodamine bleached region (ROI), using acceptor photo-bleaching method. Error bar represents the s.e.m for n=10 cells (*P<0.00001). Scale bar, 10 μm. a.u., arbitrary units.
Plasmids and transient transfection: GFPspark tagged plasmids; caspase-3 GFPspark tag (Cat: HG10050-ACG), caspase-7 GFPspark tag (HG10049-ACG), caspase-8 GFPspark (HG10078-ACG), caspase-9 GFPspark (HG11151-ACG) and cathepsin B GFPspark (HG10483-ACG) were procured from Sino Biological. For transfection, cells were seeded in a 6-well plate at a density of 0.4 million cells/well. At 60-70% confluency, cells were transiently transfected for 24 h at 37° C. with 1 μg of the GFPspark tagged plasmid DNA construct mixed with 5 μL of Lipofectamine 2000 (Invitrogen) according to the manufacturer's instructions. 24 h post-transfection, cells were visualized under the GFP filter for GFPspark expression under fluorescence microscope at 10× magnification.
Labelling of active caspases in apoptotic cells with FABP: After 24 h of transfection, cells were treated with STS (1 μM) drug or TRAIL (1 μg/ml) for apoptotic induction and incubated for 2, 4, 6 and 8 h at 37° C. in a humidified atmosphere of 5% CO2/95% air. Cells were gently scraped off from the surface at the end of apoptotic induction and centrifuged at 3000 rpm for 5 min. The cell pellet was resuspended in 300 μL of fresh DMEM containing 1 μM of probe for probe 2 and incubated for additional 2 h at 37° C. in a humidified atmosphere of 5% CO2. Cells were again centrifuged at 3000 rpm for 5 mins, and the supernatant was decanted. Cells were washed with 1×PBS, thrice finally resuspended in 20 μL of 1×PBS. The cell suspension was put on a slide, and a coverslip was placed over it. It was left for air drying. Slides were then imaged for GFP, FRET and rhodamine fluorescence signals under confocal microscopy.
Inhibitor assay: Cells were pre-treated with 50 μM of Z-VAD-FMK or Q-VD-OPh or E-64 inhibitor 1 h before probe 1 labelling and incubated for 1 h at 37° C. in a humidified atmosphere of 5% CO2. Cells were gently scraped off from the surface at the end of inhibitor treatment and centrifuged at 3000 rpm for 5 min Cells were then labelled with the probe 1 as described in the previous section.
Fluorescence imaging studies, FRET procedure: Images were collected on Zeiss LSM710 confocal microscope with 25 mW argon laser using Zen10 software. The laser was tuned to lines at 488 nm (excitation laser for GFPspark) and 561 nm (excitation laser for rhodamine) Cells were examined with a 40× 1.3 NA Zeiss oil immersion objective and 2.4× zoom. Images were collected in the three channels; GFP channel, argon laser tuned at 488 nm with 2% laser intensity and fluorescence emission was collected in emission range of 490-550 nm; rhodamine channel, argon laser tuned to 561 nm laser with 2% laser intensity and fluorescence emission was collected in range 550-650 nm and FRET channel with excitation laser of GFPSPARK channel and emission range of rhodamine channel. […]

[3] = HEK-293, inhibitor 50 μM 1 h before probe 1 labelling, STS 4 h
[4] = HEK-293, STS 1 μM 10 h, probe 1 μM 2 h

Compound | effect of inhibitor on FRET signal ([1]; HEK-293, inhibitor 50 μM pre-treatment, STS 10 h) | effect of inhibitor on FRET signal [2, 3] | signal in Rh channel in presence of inhibitor [2, 3] | calculated FRET efficiency [1, 4] [%] | rise in GFP intensity in ROI after rhodamine photobleaching [1, 4] [a.u.] | FRET efficiency ([2]; HEK-293, STS 1 μM 4 h, probe 1 μM 2 h, n=10 cells) [%]
COC(=O)C[C@H](NC(=O)[C@H](C)NC(=O)[C@@H](NC(=O)OCc1ccccc1)C(C)C)C(=O)CF [Z-VAD-FMK] (Cbz-Val-Ala-Asp(OMe)-CH2F) | abolished | completely abolished | less intense fluorescence signal was still retained | – | – | –
Rhodamine-VAD-fluoromethyl ketone [probe 1] | – | – | – | 33±2 | 87 | 37±1
